Measurements from US10005818B2, “Derivative peptide compounds and methods of use” (REALTA HOLDINGS, LLC, priority 2010, dated 2018).
Square brackets hold non-standard residues; d marks the D form. Ends that are not written are not given here. Peptide text beside a SMILES is read from it. Sar = CNCC(=O)O

Assays:
[1] = test system: complement activation in factor B-depleted human sera; assay type: biochemical
Experimental: Peptides were diluted to 0.77 mM in factor B-depleted human sera (Complement Technologies, Inc.) and incubated for 1 hour at 37° C. These peptides were then diluted with GVBS^++ to equal 2.5/s serum, of which 0.25 ml was combined with 0.4 ml of GVBS^++ and 0.1 ml of sensitized sheep red blood cells (RBCs) and again incubated for 1 hour at 37° C. The procedure was stopped by the addition of 4.0 ml of GVBS^−−, centrifuged for 5 minutes at 1,620×g, and the absorbance of the supernatants was read at 412 nm in a spectrophotometer. The percent lysis of each sample was standardized to that of the serum only control.
The final concentration of peptide in factor B-depleted serum was 0.77 mM. Each peptide was evaluated in triplicate and the mean values are reported. […] In the hemolytic assay, soluble peptides are standardized to water and insoluble peptides standardized to DMSO.
Polar Assortant peptides were serially diluted in undiluted factor B-depleted human sera (Complement Technologies, Inc.) and incubated for 1 hour at 37° C. Water, GVBS^++ and DMSO were included as controls. These peptides were then diluted with GVBS^++ to equal 2.5/s serum, of which 0.25 ml was combined with 0.4 ml of GVBS^++ and 0.1 ml of sensitized sheep red blood cells (RBCs) and again incubated for 1 hour at 37° C. The procedure was stopped by the addition of 4.0 ml of GVBS^−−, centrifuged for 5 minutes at 1,620×g, and the absorbance of the supernatants was read at 412 nm in a spectrophotometer. The percent lysis of each sample was standardized to that of the serum only control.
The final concentration of peptide in factor B-depleted serum was 0.77 mM. […] In the hemolytic assay, soluble peptides were standardized to water and insoluble peptides standardized to DMSO.
The final concentration of peptide in factor B-depleted serum was 0.77 mM. […] In the hemolytic assay, soluble peptides are standardized to water and insoluble peptides standardized to DMSO.

Solubility in water = assay type: physicochemical
[2] = Table 5, sarcosine substitution peptides
[3] = Table 7, PEGylated and sarcosine/alanine substitution peptides

Compound	Hemolysis (%) [1] [%]	solubility in water / aqueous solutions (Solubility in water)	Solubility in water (Solubility in water; [2])	Solubility in water (Solubility in water; [3])	inhibition of complement activity in hemolytic assay ([1]; factor B depleted serum)
CC[C@H](C)[C@H](N)C(=O)N[C@@H](C)C(=O)N[C@@H](CC(C)C)C(=O)N[C@H](C(=O)N[C@@H](CC(C)C)C(=O)N[C@@H](CCC(=O)O)C(=O)N1CCC[C@H]1C(=O)N[C@H](C(=O)N(C)CC(=O)N[C@@H](CS)C(=O)N[C@@H](CCC(N)=O)C(=O)N[C@@H](CCC(=O)O)C(=O)N[C@@H](CCCNC(=N)N)C(=O)N[C@@H](C)C(=O)N[C@@H](C)C(=O)O)[C@@H](C)CC)[C@@H](C)CC [PA-C9Sar] (H-IALILEPI[Sar]CQERAA-OH; N-terminus and C-terminus assumed)	5.63	water soluble	Yes	–	–
CC[C@H](C)[C@H](N)C(=O)N[C@@H](C)C(=O)N[C@@H](CC(C)C)C(=O)N[C@H](C(=O)N[C@@H](CC(C)C)C(=O)N(C)CC(=O)N1CCC[C@H]1C(=O)N[C@H](C(=O)N[C@@H](CS)C(=O)N[C@@H](CS)C(=O)N[C@@H](CCC(N)=O)C(=O)N[C@@H](CCC(=O)O)C(=O)N[C@@H](CCCNC(=N)N)C(=O)N[C@@H](C)C(=O)N[C@@H](C)C(=O)NCCOCCOCCOCCOCCOCCOCCOCCOCCOCCOCCOCCOCCOCCOCCOCCOCCOCCOCCOCCOCCOCCOCCOCCOCCC(=O)O)[C@@H](C)CC)[C@@H](C)CC [PA-E6Sar-dPEG24]	12.88	–	–	Yes	–
CC[C@H](C)[C@H](N)C(=O)N(C)CC(=O)N[C@@H](CC(C)C)C(=O)N[C@H](C(=O)N[C@@H](CC(C)C)C(=O)N[C@@H](CCC(=O)O)C(=O)N1CCC[C@H]1C(=O)N[C@H](C(=O)N[C@@H](CS)C(=O)N[C@@H](CS)C(=O)N[C@@H](CCC(N)=O)C(=O)N[C@@H](CCC(=O)O)C(=O)N[C@@H](CCCNC(=N)N)C(=O)N[C@@H](C)C(=O)N[C@@H](C)C(=O)O)[C@@H](C)CC)[C@@H](C)CC [PA-A2Sar] (H-I[Sar]LILEPICCQERAA-OH; N-terminus and C-terminus assumed)	37.72	–	Yes	–	–
CC[C@H](C)[C@H](N)C(=O)N[C@@H](C)C(=O)N[C@@H](CC(C)C)C(=O)N[C@H](C(=O)N[C@@H](CC(C)C)C(=O)N[C@@H](CCC(=O)O)C(=O)N(C)CC(=O)N[C@H](C(=O)N[C@@H](CS)C(=O)N[C@@H](CS)C(=O)N[C@@H](CCC(N)=O)C(=O)N[C@@H](CCC(=O)O)C(=O)N[C@@H](CCCNC(=N)N)C(=O)N(C)CC(=O)N[C@@H](C)C(=O)O)[C@@H](C)CC)[C@@H](C)CC [Peptide A14SarP7Sar, IALILE(Sar)ICCQER(Sar)A] (H-IALILE[Sar]ICCQER[Sar]A-OH; N-terminus and C-terminus assumed)	4.37	–	–	Yes	–
CC[C@H](C)[C@H](N)C(=O)N[C@@H](C)C(=O)N[C@@H](CC(C)C)C(=O)N[C@H](C(=O)N[C@@H](CC(C)C)C(=O)N(C)CC(=O)N(C)CC(=O)N[C@H](C(=O)N[C@@H](CS)C(=O)N[C@@H](CS)C(=O)N[C@@H](CCC(N)=O)C(=O)N[C@@H](CCC(=O)O)C(=O)N[C@@H](CCCNC(=N)N)C(=O)N[C@@H](C)C(=O)N[C@@H](C)C(=O)O)[C@@H](C)CC)[C@@H](C)CC [Peptide E6SarP7Sar] (H-IALIL[Sar][Sar]ICCQERAA-OH; N-terminus and C-terminus assumed)	3.57	–	–	Yes	–
CC[C@H](C)[C@H](N)C(=O)N[C@@H](C)C(=O)N[C@@H](CC(C)C)C(=O)N[C@H](C(=O)N[C@@H](CC(C)C)C(=O)N[C@@H](CCC(=O)O)C(=O)N1CCC[C@H]1C(=O)N[C@H](C(=O)N[C@@H](CS)C(=O)N[C@@H](CS)C(=O)N[C@@H](CCC(N)=O)C(=O)N[C@@H](CCC(=O)O)C(=O)N(C)CC(=O)N[C@@H](C)C(=O)N[C@@H](C)C(=O)O)[C@@H](C)CC)[C@@H](C)CC [PA-R13Sar]	3.42	–	No	–	–
CC[C@H](C)[C@H](N)C(=O)N[C@@H](C)C(=O)N[C@@H](CC(C)C)C(=O)N[C@H](C(=O)N[C@@H](CC(C)C)C(=O)N[C@@H](CCC(=O)O)C(=O)N1CCC[C@H]1C(=O)N[C@H](C(=O)N[C@@H](CS)C(=O)N[C@@H](CS)C(=O)N[C@@H](CCC(N)=O)C(=O)N[C@@H](CCC(=O)O)C(=O)N[C@@H](CCCNC(=N)N)C(=O)N[C@@H](C)C(=O)N(C)CC(=O)O)[C@@H](C)CC)[C@@H](C)CC [PA-A15Sar]	21.68	–	No	–	–
CC[C@H](C)[C@H](N)C(=O)N[C@@H](C)C(=O)N[C@@H](CC(C)C)C(=O)N[C@H](C(=O)N(C)CC(=O)N[C@@H](CCC(=O)O)C(=O)N1CCC[C@H]1C(=O)N[C@H](C(=O)N[C@@H](CS)C(=O)N[C@@H](CS)C(=O)N[C@@H](CCC(N)=O)C(=O)N[C@@H](CCC(=O)O)C(=O)N[C@@H](CCCNC(=N)N)C(=O)N[C@@H](C)C(=O)N[C@@H](C)C(=O)O)[C@@H](C)CC)[C@@H](C)CC [PA-L5Sar] (H-IALI[Sar]EPICCQERAA-OH; N-terminus and C-terminus assumed)	85.13	–	Yes	–	–
CC[C@H](C)[C@H](N)C(=O)N[C@@H](C)C(=O)N[C@@H](CC(C)C)C(=O)N[C@H](C(=O)N[C@@H](CC(C)C)C(=O)N(C)CC(=O)N1CCC[C@H]1C(=O)N[C@H](C(=O)N[C@@H](CS)C(=O)N[C@@H](CS)C(=O)N[C@@H](CCC(N)=O)C(=O)N[C@@H](CCC(=O)O)C(=O)N[C@@H](CCCNC(=N)N)C(=O)N[C@@H](C)C(=O)N[C@@H](C)C(=O)O)[C@@H](C)CC)[C@@H](C)CC [PA-E6Sar]	5.19	–	No	–	–
CC[C@H](C)[C@H](N)C(=O)N[C@@H](C)C(=O)N[C@@H](CC(C)C)C(=O)N[C@H](C(=O)N[C@@H](CC(C)C)C(=O)N[C@@H](CCC(=O)O)C(=O)N(C)CC(=O)N[C@H](C(=O)N[C@@H](CS)C(=O)N[C@@H](CS)C(=O)N[C@@H](CCC(N)=O)C(=O)N[C@@H](CCC(=O)O)C(=O)N[C@@H](CCCNC(=N)N)C(=O)N[C@@H](C)C(=O)N[C@@H](C)C(=O)O)[C@@H](C)CC)[C@@H](C)CC [PA-P7Sar] (H-IALILE[Sar]ICCQERAA-OH; N-terminus and C-terminus assumed)	3.01	water soluble	Yes	–	–
CC[C@H](C)[C@H](NC(=O)[C@H](CC(C)C)NC(=O)[C@H](C)NC(=O)CNC)C(=O)N[C@@H](CC(C)C)C(=O)N[C@@H](CCC(=O)O)C(=O)N1CCC[C@H]1C(=O)N[C@H](C(=O)N[C@@H](CS)C(=O)N[C@@H](CS)C(=O)N[C@@H](CCC(N)=O)C(=O)N[C@@H](CCC(=O)O)C(=O)N[C@@H](CCCNC(=N)N)C(=O)N[C@@H](C)C(=O)N[C@@H](C)C(=O)O)[C@@H](C)CC [PA-I1Sar]	84.49	–	No	–	–
dPEG24-IALILEPICCQERAA (cysteine pairing not given here) [dPEG24-PA]	–	soluble in water	–	–	varying degrees of complement inhibition
CC[C@H](C)[C@H](N)C(=O)N[C@@H](C)C(=O)N[C@@H](CC(C)C)C(=O)N[C@H](C(=O)N[C@@H](CC(C)C)C(=O)N[C@@H](CCC(=O)O)C(=O)N1CCC[C@H]1C(=O)N[C@H](C(=O)N(C)CC(=O)N[C@@H](CS)C(=O)N[C@@H](CCC(N)=O)C(=O)N[C@@H](CCC(=O)O)C(=O)N[C@@H](CCCNC(=N)N)C(=O)N(C)CC(=O)N[C@@H](C)C(=O)O)[C@@H](C)CC)[C@@H](C)CC [Peptide A14SarC9Sar] (H-IALILEPI[Sar]CQER[Sar]A-OH)	14.73	–	–	No	–
